In ChEMBL document CHEMBL4428105, “Conformational and electrostatic analysis of SN1 donor analogue glycomimetic inhibitors of ST3Gal-I mammalian sialyltransferase” (Bioorg Med Chem, 2016):

Test: Inhibition of rat recombinant ST3Gal-1 using CMP-Neu5Ac as substrate after 20 mins by fluorescence based reverse phase HPLC analysis

| Compound | IC50 |
| --- | --- |
| CC(=O)N[C@H]1[C@H]([C@H](O)[C@H](O)CO)O[C@@](CO)(CCP(=O)(O)OC[C@H]2O[C@@H](n3ccc(N)nc3=O)[C@H](O)[C@@H]2O)C[C@@H]1O | 4.2 mM |
| CC(=O)N[C@H]1[C@H]([C@H](O)[C@H](O)CO)O[C@](CCP(=O)(O)OC[C@H]2O[C@@H](n3ccc(N)nc3=O)[C@H](O)[C@@H]2O)(C(=O)O)C[C@@H]1O | 0.047 mM |
| CC(=O)N[C@H]1[C@H]([C@H](O)[C@H](O)CO)O[C@](CCP(=O)(O)OC[C@H]2O[C@@H](n3ccc(N)nc3=O)[C@H](O)[C@@H]2O)(C(N)=O)C[C@@H]1O | 3.3 mM |
